Reference: US20160106099A1, “MICROBICIDAL COMPOSITION COMPRISING ISOTHIAZOLONE AND AN AMINE OXIDE” (THOR GMBH, priority 2013, published 2016)

Key:
[1] = tested on: Candida albicans (ATCC 10231); test: Minimum inhibitory concentration and synergy index according to Kull et al.; type: cell-based; details: for Synergistic Index Qa/QA + Qb/QB: MIT + amine oxide
Method: (§1) The synergism of a combination of 2-Methyl-isothiazolinone (MIT) with N,N-Dimethyldodecan-1-amine oxide was tested. Test organisms used was the mould Aspergillus niger (DSM 12623). For the purpose of the test, mixtures containing different concentrations of MIT and N,N-Dimethyldodecan-1-amine oxide were prepared and tested for their action on Aspergillus niger. […] The MIC is the concentration at which there is no formation of colonies or mycelia on the surface of the agar (Aspergillus niger).
(§2) The synergism that occurred was presented numerically by calculation of the synergy index (SI). This calculation was made using the common method of F. C. Kull et al., Applied Microbiology, vol. 9 (1961), p. 538. SI is calculated there in accordance with the following formula:
(§3) Synergy index SI=Qa/QA+Qb/QB
(§4) Qa=concentration of MIT in the mixture of N,N-Dimethyldodecan-1-amine oxide+MIT QA=concentration of MIT as sole biocide Qb=concentration of N,N-Dimethyldodecan-1-amine oxide in the biocide mixture of N,N-Dimethyldodecan-1-amine oxide+MIT QB=concentration of N,N-Dimethyldodecan-1-amine oxide as sole biocide
(§5) If the synergy index has a value of more than 1, this means that there is an antagonism. If the synergy index adopts a value of 1, this means that the action of the two biocides is additive. If the synergy index takes on a value of below 1, this means that there is synergism of the two biocides.
Determination of the Synergy Index According to Kull et al. of N,N-Dimethyldodecan-1-amine oxide+MIT in Respect of Candida albicans (ATCC 10231)
The cell density of Candida albicans (ATCC 10231) was 10^6/ml, incubation time 72 hours, temperature 25° C.
Determination of the Synergy Index According to Kull et al. of N,N-Dimethyldodecan-1-amine oxide+MIT+2-n-octyl-4-isothiazolin-3-one (OIT) in Respect of Candida albicans (ATCC 10231)

[2] = tested on: Aspergillus niger (DSM 12623); test: Minimum inhibitory concentration and synergy index (Kull) in Sabouraud glucose agar, visual growth reading; type: cell-based; details: 72 hours at 25° C.; for Synergistic Index Qa/QA + Qb/QB: below 1 = synergism, 1 = additive, above 1 = antagonism
Method: as §1, §2, §3
In the application of this formula to the MIT+N,N-Dimethyldodecan-1-amine oxide biocide system tested here, the variables in the formula have the following definition:
as §4, §5
Determination of the Synergy Index of N,N-Dimethyldodecan-1-amine oxide+MIT in Respect of Aspergillus niger for an Incubation Time of 72 Hours at 25° C.

[3] = Table 2, sum of MIT and amine oxide at MIC

| SMILES | Synergistic Index Qa/QA + Qb/QB ([1]; Table 2, 72 hours, 25° C.) | MHK Qa (MIT) ([1]; Table 2, MIT concentration at MIC, alone or in mixture with amine oxide, 10^6/ml, 72 hours, 25° C.) | Qa/QA ([1]; Table 2, MIT in mixture / MIT as sole biocide) | Total [1, 3] | Synergistic Index Qa/QA + Qb/QB [2] | MHK Qa (MIT) ([2]; MIT concentration at MIC, alone (MIC) or in mixture with amine oxide, 3,7·10^6 spores per ml) | Total ([1]; Table 3) | Synergistic Index ([1]; Table 3, MIT + amine oxide + OIT) | Qb/QB ([1]; Table 3, OIT component) | MHK Qb (OIT) ([1]; Table 3, OIT concentration at MIC, alone or with MIT + amine oxide) | MHK Qb (Amine oxide) ([1]; Table 2, amine oxide concentration at MIC, alone or in mixture with MIT, 72 hours, 25° C.) | Qb/QB ([1]; Table 2, amine oxide in mixture / amine oxide as sole biocide) | MHK Qb (Amine oxide) ([2]; amine oxide concentration at MIC, alone (MIC) or in mixture with MIT) |
| --- | --- | --- | --- | --- | --- | --- | --- | --- | --- | --- | --- | --- | --- |
| Cn1sccc1=O [MIT, 2-methylisothiazolin-3-one] | 1.00 | 125 ppm | 1.00 | 125 ppm | 1.00 | 1000 (MIC) ppm |  |  |  |  |  |  |  |
| CCCCCCCCn1sccc1=O [OIT, 2-n-octyl-4-isothiazolin-3-one] |  |  |  |  |  |  | 3 ppm | 1.00 | 1.00 | 3 ppm |  |  |  |
| CCCCCCCCCCCC[N+](C)(C)[O-] [Amine oxide, N,N-Dimethyldodecan-1-amine oxide] | 1.00 |  |  | 50 ppm | 1.00 |  |  |  |  |  | 50 ppm | 1.00 | 231 (MIC) ppm |
